Numbered stars: 1 amine (or outer) side, 2 acyl side, 3 side chain; on linkers, the order of the positions; unused ones are H or OH. Bridge positions count the residues as written; N and C are the ends. Square brackets hold non-standard residues; d marks the D form. Peptide text beside a SMILES is read from it. * marks the point of attachment. Trp(1-CH2COOH) = N[C@@H](Cc1cn(CC(=O)O)c2ccccc12)C(=O)O; Ala(2-NH2-4-pyridyl) = Nc1cc(C[C@H](N)C(=O)O)ccn1; Phe(3-COOH) = N[C@@H](Cc1cccc(C(=O)O)c1)C(=O)O; NMePhe(3-Cl) = CN[C@@H](Cc1cccc(Cl)c1)C(=O)O; 3Pal(6-OMe) = COc1ccc(C[C@H](N)C(=O)O)cn1; X5 = COc1cc(C[C@H](N[*:1])C(=O)[*:2])ccn1; 3Pal(6-NH2) = Nc1ccc(C[C@H](N)C(=O)O)cn1; X3 = Cc1ccc(C[C@H](N[*:1])C(=O)[*:2])cn1; Tyr(3-Me) = Cc1cc(C[C@H](N)C(=O)O)ccc1O; NMe4Pal = CN[C@@H](Cc1ccncc1)C(=O)O; NMeY = CN[C@@H](Cc1ccc(O)cc1)C(=O)O; Nva(3-Et) = CCC(CC)[C@H](N)C(=O)O; 3Pal = N[C@@H](Cc1cccnc1)C(=O)O; PEG4 = NCCOCCOCCOCCOCCC(=O)O; Carboxymethyl = O=C(O)C*
How the values were obtained:
[1] = target: T1, human transferrin receptor (hTfR) (Homo sapiens, UniProt P02786); assay: SPR measurement under pH 7.4 conditions (Biacore T200, CM3 chip, hTfR captured by His Tag antibody); format: binding; settings: SPR, pH 7.4; peptide with the linker named in the table; read-out: hTfR SPR pH7.4 KD
[2] = target: T1, human transferrin receptor (hTfR); assay: SPR measurement under pH 6.0 conditions (Biacore T200, NTA chip, immobilized hTfR); format: binding; settings: SPR, pH 6.0; peptide with the linker named in the table; read-out: hTfR SPR pH6.0 KD

T1 sequence (P02786 whole entry): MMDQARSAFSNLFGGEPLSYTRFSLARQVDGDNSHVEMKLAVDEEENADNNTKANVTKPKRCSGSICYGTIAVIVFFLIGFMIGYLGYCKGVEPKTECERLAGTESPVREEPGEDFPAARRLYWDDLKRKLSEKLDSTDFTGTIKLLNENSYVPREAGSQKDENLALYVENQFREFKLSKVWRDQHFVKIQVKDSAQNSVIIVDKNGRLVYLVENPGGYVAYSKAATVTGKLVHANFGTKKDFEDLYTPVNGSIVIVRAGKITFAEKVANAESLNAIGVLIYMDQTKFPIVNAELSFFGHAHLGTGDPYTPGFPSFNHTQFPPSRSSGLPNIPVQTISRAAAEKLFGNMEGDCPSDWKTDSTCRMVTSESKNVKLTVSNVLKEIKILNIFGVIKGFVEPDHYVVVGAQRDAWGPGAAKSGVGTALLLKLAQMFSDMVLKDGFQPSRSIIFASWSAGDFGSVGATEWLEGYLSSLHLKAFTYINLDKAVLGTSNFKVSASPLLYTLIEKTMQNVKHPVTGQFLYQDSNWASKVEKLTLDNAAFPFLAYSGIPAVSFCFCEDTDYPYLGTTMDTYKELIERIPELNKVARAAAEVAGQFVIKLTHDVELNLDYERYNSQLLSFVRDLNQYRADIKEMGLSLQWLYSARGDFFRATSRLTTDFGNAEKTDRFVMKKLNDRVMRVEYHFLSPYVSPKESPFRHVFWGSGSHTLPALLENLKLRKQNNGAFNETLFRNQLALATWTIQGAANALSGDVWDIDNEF

SMILES | Kd [1] | Kd [2]
CCC(CC)[C@@H]1NC(=O)[C@H](Cc2ccc(OCC(=O)O)cc2)NC(=O)[C@H](Cc2ccc(O)cc2)NC(=O)[C@H](CC(N)=O)NC(=O)[C@H](Cc2cn(CC(=O)O)c3ccccc23)NC(=O)[C@H](C(C)C)NC(=O)[C@H](Cc2cccc(Cl)c2)N(C)C(=O)[C@H](C(C)C)NC(=O)[C@H](C)NC(=O)CSC[C@@H](C(=O)NCCOCCOCCOCCOCCC(N)=O)NC(=O)[C@H](Cc2ccncc2)N(C)C(=O)[C@H](Cc2cccc(C(=O)O)c2)NC(=O)[C@H](CCCNC(=N)N)NC(=O)[C@H](CCC(N)=O)NC(=O)[C@H]([C@@H](C)CC)NC1=O [compound 96] ({CH2CO}-AV[NMePhe(3-Cl)]V[Trp(1-CH2COOH)]NYY(Carboxymethyl)[Nva(3-Et)]IQR[Phe(3-COOH)][NMe4Pal]C[PEG4]-NH2; thioether N-15) | 18.2 nM | 91.9 nM
CCC(CC)[C@@H]1NC(=O)[C@H](Cc2ccc(OCC(=O)O)cc2)NC(=O)[C@H](Cc2ccc(O)cc2)NC(=O)[C@H](CC(N)=O)NC(=O)[C@H](Cc2cn(CC(=O)O)c3ccccc23)NC(=O)[C@H](C(C)C)NC(=O)[C@H](Cc2cccc(Cl)c2)N(C)C(=O)[C@H](C(C)C)NC(=O)[C@H](C)NC(=O)CSC[C@@H](C(=O)NCCOCCOCCOCCOCCC(N)=O)NC(=O)[C@H](Cc2ccc(O)cc2)N(C)C(=O)[C@H](Cc2cccc(C(=O)O)c2)NC(=O)[C@H](Cc2c[nH]cn2)NC(=O)[C@H](CCC(N)=O)NC(=O)[C@H]([C@@H](C)CC)NC1=O [compound 98] ({CH2CO}-AV[NMePhe(3-Cl)]V[Trp(1-CH2COOH)]NYY(Carboxymethyl)[Nva(3-Et)]IQH[Phe(3-COOH)][NMeY]C[PEG4]-NH2; thioether N-15) | 20.6 nM | 145 nM
CCC(CC)[C@@H]1NC(=O)[C@H](Cc2ccc(OCC(=O)O)cc2)NC(=O)[C@H](Cc2ccc(O)cc2)NC(=O)[C@H](CC(N)=O)NC(=O)[C@H](Cc2cn(CC(=O)O)c3ccccc23)NC(=O)[C@H](C(C)C)NC(=O)[C@H](Cc2cccc(Cl)c2)N(C)C(=O)[C@H](C(C)C)NC(=O)[C@H](C)NC(=O)CSC[C@@H](C(=O)NCCOCCOCCOCCOCCC(N)=O)NC(=O)[C@H](Cc2ccc(O)cc2)N(C)C(=O)[C@H](Cc2ccc(O)c(C)c2)NC(=O)[C@H](CCCNC(=N)N)NC(=O)[C@H](CCC(N)=O)NC(=O)[C@H]([C@@H](C)CC)NC1=O [compound 99] ({CH2CO}-AV[NMePhe(3-Cl)]V[Trp(1-CH2COOH)]NYY(Carboxymethyl)[Nva(3-Et)]IQR[Tyr(3-Me)][NMeY]C[PEG4]-NH2; thioether N-15) | 9.08 nM | 56.2 nM
CCC(CC)[C@@H]1NC(=O)[C@H](Cc2ccc(OCC(=O)O)cc2)NC(=O)[C@H](Cc2ccc(O)cc2)NC(=O)[C@H](CC(N)=O)NC(=O)[C@H](Cc2cn(CC(=O)O)c3ccccc23)NC(=O)[C@H](C(C)C)NC(=O)[C@H](Cc2cccc(Cl)c2)N(C)C(=O)[C@H](C(C)C)NC(=O)[C@H](C)NC(=O)CSC[C@@H](C(=O)NCCOCCOCCOCCOCCC(N)=O)NC(=O)[C@H](Cc2ccc(O)cc2)N(C)C(=O)[C@H](Cc2ccnc(OC)c2)NC(=O)[C@H](CCCNC(=N)N)NC(=O)[C@H](CCC(N)=O)NC(=O)[C@H]([C@@H](C)CC)NC1=O [compound 103] ({CH2CO}-AV[NMePhe(3-Cl)]V[Trp(1-CH2COOH)]NYY(Carboxymethyl)[Nva(3-Et)]IQR[X5][NMeY]C[PEG4]-NH2; thioether N-15) | 11.5 nM | 95 nM
CCC(CC)[C@@H]1NC(=O)[C@H](Cc2ccc(OCC(=O)O)cc2)NC(=O)[C@H](Cc2ccc(O)cc2)NC(=O)[C@H](CC(N)=O)NC(=O)[C@H](Cc2cn(CC(=O)O)c3ccccc23)NC(=O)[C@H](C(C)C)NC(=O)[C@H](Cc2cccc(Cl)c2)N(C)C(=O)[C@H](C(C)C)NC(=O)[C@H](C)NC(=O)CSC[C@@H](C(=O)NCCOCCOCCOCCOCCC(N)=O)NC(=O)[C@H](Cc2ccc(O)cc2)N(C)C(=O)[C@H](Cc2ccnc(N)c2)NC(=O)[C@H](CCCNC(=N)N)NC(=O)[C@H](CCC(N)=O)NC(=O)[C@H]([C@@H](C)CC)NC1=O [compound 104] ({CH2CO}-AV[NMePhe(3-Cl)]V[Trp(1-CH2COOH)]NYY(Carboxymethyl)[Nva(3-Et)]IQR[Ala(2-NH2-4-pyridyl)][NMeY]C[PEG4]-NH2; thioether N-15) | 10.7 nM | 78.2 nM

The remaining lines, values ahead:

Kd [1] | Kd [2] | SMILES
12.7 nM | 113 nM | CCC(CC)[C@@H]1NC(=O)[C@H](Cc2ccc(OCC(=O)O)cc2)NC(=O)[C@H](Cc2ccc(O)cc2)NC(=O)[C@H](CC(N)=O)NC(=O)[C@H](Cc2cn(CC(=O)O)c3ccccc23)NC(=O)[C@H](C(C)C)NC(=O)[C@H](Cc2cccc(Cl)c2)N(C)C(=O)[C@H](C(C)C)NC(=O)[C@H](C)NC(=O)CSC[C@@H](C(=O)NCCOCCOCCOCCOCCC(N)=O)NC(=O)[C@H](Cc2ccc(O)cc2)N(C)C(=O)[C@H](Cc2ccc(C)nc2)NC(=O)[C@H](CCCNC(=N)N)NC(=O)[C@H](CCC(N)=O)NC(=O)[C@H]([C@@H](C)CC)NC1=O [compound 100] ({CH2CO}-AV[NMePhe(3-Cl)]V[Trp(1-CH2COOH)]NYY(Carboxymethyl)[Nva(3-Et)]IQR[X3][NMeY]C[PEG4]-NH2; thioether N-15)
8.63 nM | 66.7 nM | CCC(CC)[C@@H]1NC(=O)[C@H](Cc2ccc(OCC(=O)O)cc2)NC(=O)[C@H](Cc2ccc(O)cc2)NC(=O)[C@H](CC(N)=O)NC(=O)[C@H](Cc2cn(CC(=O)O)c3ccccc23)NC(=O)[C@H](C(C)C)NC(=O)[C@H](Cc2cccc(Cl)c2)N(C)C(=O)[C@H](C(C)C)NC(=O)[C@H](C)NC(=O)CSC[C@@H](C(=O)NCCOCCOCCOCCOCCC(N)=O)NC(=O)[C@H](Cc2ccc(O)cc2)N(C)C(=O)[C@H](Cc2ccc(OC)nc2)NC(=O)[C@H](CCCNC(=N)N)NC(=O)[C@H](CCC(N)=O)NC(=O)[C@H]([C@@H](C)CC)NC1=O [compound 101] ({CH2CO}-AV[NMePhe(3-Cl)]V[Trp(1-CH2COOH)]NYY(Carboxymethyl)[Nva(3-Et)]IQR[3Pal(6-OMe)][NMeY]C[PEG4]-NH2; thioether N-15)
9.81 nM | 76.4 nM | CCC(CC)[C@@H]1NC(=O)[C@H](Cc2ccc(OCC(=O)O)cc2)NC(=O)[C@H](Cc2ccc(O)cc2)NC(=O)[C@H](CC(N)=O)NC(=O)[C@H](Cc2cn(CC(=O)O)c3ccccc23)NC(=O)[C@H](C(C)C)NC(=O)[C@H](Cc2cccc(Cl)c2)N(C)C(=O)[C@H](C(C)C)NC(=O)[C@H](C)NC(=O)CSC[C@@H](C(=O)NCCOCCOCCOCCOCCC(N)=O)NC(=O)[C@H](Cc2ccc(O)cc2)N(C)C(=O)[C@H](Cc2ccc(N)nc2)NC(=O)[C@H](CCCNC(=N)N)NC(=O)[C@H](CCC(N)=O)NC(=O)[C@H]([C@@H](C)CC)NC1=O [compound 102] ({CH2CO}-AV[NMePhe(3-Cl)]V[Trp(1-CH2COOH)]NYY(Carboxymethyl)[Nva(3-Et)]IQR[3Pal(6-NH2)][NMeY]C[PEG4]-NH2; thioether N-15)
10.6 nM | 67.9 nM | CCC(CC)[C@@H]1NC(=O)[C@H](Cc2ccc(OCC(=O)O)cc2)NC(=O)[C@H](Cc2ccc(O)cc2)NC(=O)[C@H](CC(N)=O)NC(=O)[C@H](Cc2cn(CC(=O)O)c3ccccc23)NC(=O)[C@H](C(C)C)NC(=O)[C@H](Cc2cccc(Cl)c2)N(C)C(=O)[C@H](C(C)C)NC(=O)[C@H](C)NC(=O)CSC[C@@H](C(=O)NCCOCCOCCOCCOCCC(N)=O)NC(=O)[C@H](Cc2ccc(O)cc2)N(C)C(=O)[C@H](Cc2cccnc2)NC(=O)[C@H](CCCNC(=N)N)NC(=O)[C@H](CCC(N)=O)NC(=O)[C@H]([C@@H](C)CC)NC1=O [compound 105] ({CH2CO}-AV[NMePhe(3-Cl)]V[Trp(1-CH2COOH)]NYY(Carboxymethyl)[Nva(3-Et)]IQR[3Pal][NMeY]C[PEG4]-NH2; thioether N-15)

From patent EP4667483A1, “HUMAN TRANSFERRIN RECEPTOR-BINDING PEPTIDE” (JCR Pharmaceuticals Co., Ltd., priority 2023, dated 2024)
